# Source: publication PMC12669672, “Structural insights into selective and dual antagonism of EP2 and EP4 prostaglandin receptors” (The EMBO Journal, 2025)
# “And” between values parts separate entries of the source, which are not always exact repeats. Equal entries are not always repeated. “Also recorded” adds a separate entry of the source. Where two headings read alike, the source gives them in different places.
# Experiments:
# Format in all cases: cell-based
# [1] = target: T1, constitutively active EP2 WT (Homo sapiens, UniProt P43116); experiment: GloSensor cAMP assay, inhibition of constitutive activity
# T1 construct: The full-length EP2 or EP4 was cloned into the pcDNA3.1 vector; FLAG (N); expressed in transfected cells; host or cells: AD293 cells
# T1 sequence (P43116 whole entry): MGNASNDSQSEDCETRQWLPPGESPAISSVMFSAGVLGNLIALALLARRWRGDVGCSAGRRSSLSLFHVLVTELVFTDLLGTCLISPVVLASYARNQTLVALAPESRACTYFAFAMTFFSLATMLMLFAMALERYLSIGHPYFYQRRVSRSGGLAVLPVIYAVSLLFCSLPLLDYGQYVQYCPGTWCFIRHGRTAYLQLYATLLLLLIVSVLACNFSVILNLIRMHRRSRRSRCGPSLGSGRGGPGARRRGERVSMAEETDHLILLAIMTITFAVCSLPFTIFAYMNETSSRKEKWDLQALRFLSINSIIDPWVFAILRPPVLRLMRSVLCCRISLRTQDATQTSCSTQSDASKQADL
# Description: (§1) The full-length EP2 or EP4 was cloned into the pcDNA3.1 vector (Invitrogen), incorporating an N-terminal FLAG tag. AD293 cells were seeded in six-well plates containing DMEM supplemented with 10% dialyzed FBS 1 day prior to transfection. Following overnight growth, cells were transfected with a 1:1 ratio of receptor construct and GloSensor22F cAMP biosensor (Promega) plasmids.
# (§2) Twenty-four hours post-transfection, the cells were transferred to CO2-independent media containing 2% GloSensor cAMP Reagent (Promega) and distributed into 384-well assay plates at a density of 4000 cells per well in 10 μL. […] The plates were then incubated at 37 °C for an additional hour before luminescence measurements were taken using an EnVision plate reader.
# (§3) Data analysis was performed using GraphPad Prism software v8.0.1. A nonlinear regression analysis, employing a sigmoidal dose–response model, was conducted to determine the Emax values and half-maximum inhibitory concentrations (IC50) for each compound tested.
# [2] = target: T2, constitutively active EP4 S319A (Homo sapiens, UniProt P35408, S319A); experiment: as above
# T2 construct: The full-length EP2 or EP4 was cloned into the pcDNA3.1 vector (Invitrogen), incorporating an N-terminal FLAG tag; expressed in transfected cells; host or cells: AD293
# T2 sequence (P35408 whole entry S319A): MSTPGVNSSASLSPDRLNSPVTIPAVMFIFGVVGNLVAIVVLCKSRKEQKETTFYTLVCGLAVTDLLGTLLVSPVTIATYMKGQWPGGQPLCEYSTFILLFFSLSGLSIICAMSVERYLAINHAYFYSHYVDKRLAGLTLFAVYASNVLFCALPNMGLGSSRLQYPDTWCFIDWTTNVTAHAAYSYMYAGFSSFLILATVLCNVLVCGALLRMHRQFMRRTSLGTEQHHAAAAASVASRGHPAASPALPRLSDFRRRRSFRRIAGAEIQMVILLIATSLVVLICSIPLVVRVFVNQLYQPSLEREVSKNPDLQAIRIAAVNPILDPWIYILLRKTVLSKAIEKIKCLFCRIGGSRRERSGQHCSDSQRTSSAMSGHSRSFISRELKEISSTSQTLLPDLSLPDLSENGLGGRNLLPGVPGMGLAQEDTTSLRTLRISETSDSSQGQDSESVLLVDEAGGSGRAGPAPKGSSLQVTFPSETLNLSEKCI
# Description: as §1, §2, §3
# EP4 WT = target: T3, EP4 WT (Homo sapiens, UniProt P35408); experiment: GloSensor cAMP assay, antagonism of PGE2-induced cAMP; conditions: for remaining activity at 100 µM / remaining activity at […] / remaining activity at 0.1585 µM / remaining activity at 0.03236 µM / remaining activity at 0.006457 µM / remaining activity at 0.001288 µM: 1 h
# T3 construct: The full-length EP2 or EP4 was cloned into the pcDNA3.1 vector; FLAG (N); expressed in transfected cells; host or cells: AD293 cells
# T3 sequence (P35408 whole entry): as the sequence (P35408 whole entry S319A) above, with A319S counted along it
# Description: as §1, §2, §3
# EP2 WT = EP2 WT (Homo sapiens, UniProt P43116); experiment: as above; parameters: The full-length EP2 or EP4 was cloned into the pcDNA3.1 vector; FLAG (N); expressed in transfected cells; host or cells: AD293 cells
# Sequence of EP2 WT (P43116 whole entry): as the sequence (P43116 whole entry) above
# Description: as §1, §2, §3
# [3] = TG6-129, WT, single experiments 1st-3rd
smiles,measurement,setting,value
CCc1nnc(NS(=O)(=O)c2ccc(NC(=S)NC(=O)/C=C/c3ccc(F)cc3)cc2)s1 [TG6-129],remaining activity at 10 pM,"[1]; 1 h, TG6-129 log([M]) -11, EP2-WT, read-out: % cAMP activity (normalized to WT)",100%
same,remaining activity at 1 pM,"[1]; 1 h, TG6-129 log([M]) -12, EP2-WT, read-out: % cAMP activity (normalized to WT)",88.6%
same,TG6-129 cAMP activity (∆pIC50 from EP2 WT),"[1]; WT, single experiments 1st-3rd",-0.062 and 0.053 and 0.096
same,IC50,[2],20 µM
same,remaining activity at 100 µM,"[2]; 1 h, TG6-129 log([M]) -4.00, EP4-S319A, read-out: % cAMP activity (normalized to WT)",6.8%
same,remaining activity at […],"[2]; 1 h, TG6-129 log([M]) -4.70, EP4-S319A, read-out: % cAMP activity (normalized to WT)",46.6%
same,remaining activity at 0.006457 µM,"[2]; 1 h, TG6-129 log([M]) -8.19, EP4-S319A, read-out: % cAMP activity (normalized to WT)",114%
same,remaining activity at 0.001288 µM,"[2]; 1 h, TG6-129 log([M]) -8.89, EP4-S319A, read-out: % cAMP activity (normalized to WT)",108%
same,"TG6-129 cAMP activity (∆pIC50 from EP4 WT), Mean","[2]; S319A, Mean",-0.460
same,TG6-129 cAMP activity (∆pIC50 from EP4 WT),"[2]; S319A, single experiments 1st-3rd",-0.435 and -0.502 and -0.443
same,ΔpIC50,"[2]; no PGE2, pIC50 mutant - pIC50 WT, mean",-0.46 ± 0.02
same,remaining activity at 100 µM,"EP4 WT; TG6-129 log([M]) -4.00, read-out: % cAMP activity (normalized to WT)",15.1%
same,remaining activity at […],"EP4 WT; TG6-129 log([M]) -4.70, read-out: % cAMP activity (normalized to WT)",25.9%
same,remaining activity at […],"EP4 WT; TG6-129 log([M]) -5.40, read-out: % cAMP activity (normalized to WT)",86.4%
same,remaining activity at […],"EP4 WT; TG6-129 log([M]) -6.10, read-out: % cAMP activity (normalized to WT)",94.7%
same,remaining activity at 0.1585 µM,"EP4 WT; TG6-129 log([M]) -6.80, read-out: % cAMP activity (normalized to WT)",90.5%
same,remaining activity at 0.03236 µM,"EP4 WT; TG6-129 log([M]) -7.49, read-out: % cAMP activity (normalized to WT)",87.9%
same,remaining activity at 0.006457 µM,"EP4 WT; TG6-129 log([M]) -8.19, read-out: % cAMP activity (normalized to WT)",104%
same,remaining activity at 0.001288 µM,"EP4 WT; TG6-129 log([M]) -8.89, read-out: % cAMP activity (normalized to WT)",109%
same,remaining activity at 100 µM,"EP4 WT; read-out: % cAMP activity EP4 (normalized to Grapiprant), ligand log([M]) -4.00, single experiments 1st-3rd, Fig. S1A",15.1%
same,remaining activity at […],"EP4 WT; read-out: % cAMP activity EP4 (normalized to Grapiprant), ligand log([M]) -4.70, single experiments 1st-3rd, Fig. S1A",25.9%
same,remaining activity at […],"EP4 WT; read-out: % cAMP activity EP4 (normalized to Grapiprant), ligand log([M]) -5.40, single experiments 1st-3rd, Fig. S1A",86.4%
same,remaining activity at […],"EP4 WT; read-out: % cAMP activity EP4 (normalized to Grapiprant), ligand log([M]) -6.10, single experiments 1st-3rd, Fig. S1A",94.7%
same,remaining activity at 0.1585 µM,"EP4 WT; read-out: % cAMP activity EP4 (normalized to Grapiprant), ligand log([M]) -6.80, single experiments 1st-3rd, Fig. S1A",90.5%
same,remaining activity at 0.03236 µM,"EP4 WT; read-out: % cAMP activity EP4 (normalized to Grapiprant), ligand log([M]) -7.49, single experiments 1st-3rd, Fig. S1A",87.9%
same,remaining activity at 0.006457 µM,"EP4 WT; read-out: % cAMP activity EP4 (normalized to Grapiprant), ligand log([M]) -8.19, single experiments 1st-3rd, Fig. S1A",104%
same,remaining activity at 0.001288 µM,"EP4 WT; read-out: % cAMP activity EP4 (normalized to Grapiprant), ligand log([M]) -8.89, single experiments 1st-3rd, Fig. S1A",109%
same,cAMP activity (∆pIC50 from EP4 WT),EP4 WT; [3],0.138 and 0.074 and -0.140
same,IC50,EP2 WT,0.0813 µM
same,remaining activity at 0.1 µM,"EP2 WT; 1 h, TG6-129 log([M]) -7, read-out: % cAMP activity (normalized to WT)",40.1%
same,remaining activity at 0.01 µM,"EP2 WT; 1 h, TG6-129 log([M]) -8, read-out: % cAMP activity (normalized to WT)",94.7%
same,remaining activity at 0.001 µM,"EP2 WT; 1 h, TG6-129 log([M]) -9, read-out: % cAMP activity (normalized to WT)",104%
same,remaining activity at 0.0001 µM,"EP2 WT; 1 h, TG6-129 log([M]) -10, read-out: % cAMP activity (normalized to WT)",94.6%
same,remaining activity at 10 pM,"EP2 WT; 1 h, TG6-129 log([M]) -11, read-out: % cAMP activity (normalized to WT)",102%
same,remaining activity at 1 pM,"EP2 WT; 1 h, TG6-129 log([M]) -12, read-out: % cAMP activity (normalized to WT)",94.1%
same,remaining activity at 1 µM,"EP2 WT; 1 h, ligand log([M]) -6, single experiments 1st-3rd, Fig. S7B, read-out: % cAMP activity (normalized to WT)",3.11%
same,remaining activity at 0.1 µM,"EP2 WT; 1 h, ligand log([M]) -7, single experiments 1st-3rd, Fig. S7B, read-out: % cAMP activity (normalized to WT)",42.8%
same,remaining activity at 0.01 µM,"EP2 WT; 1 h, ligand log([M]) -8, single experiments 1st-3rd, Fig. S7B, read-out: % cAMP activity (normalized to WT)",80.3%
same,remaining activity at 0.001 µM,"EP2 WT; 1 h, ligand log([M]) -9, single experiments 1st-3rd, Fig. S7B, read-out: % cAMP activity (normalized to WT)",95.4%
same,remaining activity at 0.0001 µM,"EP2 WT; 1 h, ligand log([M]) -10, single experiments 1st-3rd, Fig. S7B, read-out: % cAMP activity (normalized to WT)",93.9%
same,remaining activity at 10 pM,"EP2 WT; 1 h, ligand log([M]) -11, single experiments 1st-3rd, Fig. S7B, read-out: % cAMP activity (normalized to WT)",103%
same,remaining activity at 1 pM,"EP2 WT; 1 h, ligand log([M]) -12, single experiments 1st-3rd, Fig. S7B, read-out: % cAMP activity (normalized to WT)",110%
same,remaining activity at 0.1 µM,"EP2 WT; 1 h, read-out: % cAMP activity on EP2 (normalized to PF-04418948), ligand log([M]) -7, single experiments 1st-3rd, Fig. S1A",46%
same,remaining activity at 0.01 µM,"EP2 WT; 1 h, read-out: % cAMP activity on EP2 (normalized to PF-04418948), ligand log([M]) -8, single experiments 1st-3rd, Fig. S1A",84.5%
same,remaining activity at 0.001 µM,"EP2 WT; 1 h, read-out: % cAMP activity on EP2 (normalized to PF-04418948), ligand log([M]) -9, single experiments 1st-3rd, Fig. S1A",100%
same,remaining activity at 0.0001 µM,"EP2 WT; 1 h, read-out: % cAMP activity on EP2 (normalized to PF-04418948), ligand log([M]) -10, single experiments 1st-3rd, Fig. S1A",98.6%
same,remaining activity at 10 pM,"EP2 WT; 1 h, read-out: % cAMP activity on EP2 (normalized to PF-04418948), ligand log([M]) -11, single experiments 1st-3rd, Fig. S1A",108%
same,remaining activity at 1 pM,"EP2 WT; 1 h, read-out: % cAMP activity on EP2 (normalized to PF-04418948), ligand log([M]) -12, single experiments 1st-3rd, Fig. S1A",115%
same,cAMP activity (∆pIC50 from EP2 WT),EP2 WT; [3],0.065 and 0.064 and -0.014
same,antagonism profile EP2 versus EP4 (in words),"EP2 WT; cAMP accumulation assay upon PGE2 stimulation, Appendix Fig. S1A",dual antagonist that preferentially antagonizes EP2; also recorded: preferential potency toward EP2
same,cAMP activity (∆pIC50 from EP2 WT),"EP2 WT; single experiments 1st-3rd, Appendix Fig. S7A",0.111 and -0.076 and -0.052
